Measured values: ChEMBL document CHEMBL1142597, “Arugosins G and H: prenylated polyketides from the marine-derived fungus Emericellanidulans var. acristata” (J Nat Prod, 2006)
Activity calls are given as the source filed them. No cut-off for these calls is given here.

How the values were obtained:
PBMC [1] = assay: Stimulation of IL4 production in human PBMC at 1 ug/mL after 24 hrs by flow cytometry with cytometric bead array method; format: functional, cell-based
PBMC [2] = assay: Stimulation of IFN-gamma production in human PBMC at 1 ug/mL after 24 hrs by flow cytometry with cytometric bead array method; format: functional, cell-based
PBMC [3] = assay: Stimulation of IL2 production in human PBMC at 0.1 ug/mL after 24 hrs by flow cytometry with cytometric bead array method; format: functional, cell-based
PBMC [4] = assay: Stimulation of IL10 production in human PBMC at 1 ug/mL after 24 hrs by flow cytometry with cytometric bead array method; format: functional, cell-based
PBMC [5] = assay: Stimulation of IL6 production in human PBMC at 1 ug/mL after 24 hrs by flow cytometry with cytometric bead array method; format: functional, cell-based
PBMC [6] = assay: Stimulation of TNFalpha production in human PBMC at 1 ug/mL after 24 hrs by flow cytometry with cytometric bead array method; format: functional, cell-based
PBMC [7] = assay: Cytotoxicity against human PBMC at 1 ug/mL; format: cell-based
PBMC [8] = assay: Stimulation of IL4 production in human PBMC at 0.1 ug/mL after 24 hrs by flow cytometry with cytometric bead array method; format: functional, cell-based
PBMC [9] = assay: Stimulation of IFN-gamma production in human PBMC at 0.1 ug/mL after 24 hrs by flow cytometry with cytometric bead array method; format: functional, cell-based
PBMC [10] = assay: Cytotoxicity against human PBMC at 0.1 ug/mL; format: cell-based
PBMC [11] = assay: Stimulation of IL10 production in human PBMC at 0.1 ug/mL after 24 hrs by flow cytometry with cytometric bead array method; format: functional, cell-based
PBMC [12] = assay: Stimulation of IL6 production in human PBMC at 0.1 ug/mL after 24 hrs by flow cytometry with cytometric bead array method; format: functional, cell-based
PBMC [13] = assay: Stimulation of TNFalpha production in human PBMC at 0.1 ug/mL after 24 hrs by flow cytometry with cytometric bead array method; format: functional, cell-based
PBMC [14] = assay: Stimulation of IL2 production in human PBMC at 1 ug/mL after 24 hrs by flow cytometry with cytometric bead array method; format: functional, cell-based
Mycotypha microspora = assay: Antifungal activity against Mycotypha microspora at 50 ug/disk by agar diffusion assay; format: functional; details: read-out: IZ
[Chlorella] fusca = Antialgal activity against 'Chlorella' fusca at 50 ug/disk by agar diffusion assay; format: functional; details: Scenedesmus fuscus; read-out: IZ

Compound	Activity (PBMC [1])	Activity (PBMC [2])	Activity (PBMC [3])	Activity (PBMC [4])	Activity (PBMC [5])	Activity (PBMC [6])	Activity (PBMC [7])	Activity (PBMC [8])	Activity (PBMC [9])	Activity (PBMC [10])	Activity (PBMC [11])	Activity (PBMC [12])	Activity (PBMC [13])	Activity (PBMC [14])	zone of inhibition at 50 µg/disc (Mycotypha microspora) [mm]	zone of inhibition at 50 µg/disc ([Chlorella] fusca) [mm]
O=C1OC(O)C(Cc2ccccc2)=C1c1ccccc1 (centres undefined) [MICROPERFURANONE]	inactive	inactive	inactive	inactive	inactive	inactive	Non-toxic	inactive	inactive	Non-toxic	inactive	inactive	inactive	inactive		
CC(C)=CCOc1c(C)cc(O)c2c1C(O)Oc1c(CC=C(C)C)ccc(O)c1C2=O (centres undefined) [ARUGOSIN B]	inactive	inactive	inactive	inactive	inactive	inactive	Non-toxic	inactive	inactive	Non-toxic	inactive	inactive	inactive	inactive		
C=C(C)[C@H]1COc2c(C)cc3oc4c(CC=C(C)C)ccc(O)c4c(=O)c3c2[C@@H]1O [SHAMIXANTHONE]	inactive	inactive	inactive	inactive	inactive	inactive	Non-toxic	inactive	inactive	Non-toxic	inactive	inactive	inactive	inactive		
C=C1CC[C@@H]2[C@](C)(CC[C@H](O)[C@@]2(C)CCC=C(C)C)[C@@H]1Cc1c[nH]c2ccccc12 [EMINDOLE DA]	inactive	inactive	inactive	inactive	inactive	inactive	Non-toxic	inactive	inactive	Non-toxic	inactive	inactive	inactive	inactive		
CC(C)=CCOc1c(C)cc(O)c2c1C(O)Oc1c(CC=C(C)C)cc(CC=C(C)C)c(O)c1C2=O (centres undefined) [ARUGOSINS G]	inactive	inactive	inactive	inactive	inactive	inactive	Non-toxic	inactive	inactive	Non-toxic	inactive	inactive	inactive	inactive		
CC(C)=CCOc1c(C)cc2oc3c(CC=C(C)C)ccc(O)c3c(=O)c2c1CO [EMERICELLIN]	inactive	inactive	inactive	inactive	inactive	inactive	Non-toxic	inactive	inactive	Non-toxic	inactive	inactive	inactive	inactive		
CC(C)=CCc1ccc(O)c(C(=O)c2c(O)cc(C)c(O)c2C=O)c1O [ARUGOSINS H]	inactive	inactive	inactive	inactive	inactive	inactive	Non-toxic	inactive	inactive	Non-toxic	inactive	inactive	inactive	inactive	3	2
CC(C)=CCOc1c(C)cc(O)c2c1C(O)Oc1ccc(CC=C(C)C)c(O)c1C2=O (centres undefined) [ARUGOSIN A]	inactive	inactive	inactive	inactive	inactive	inactive	Non-toxic	inactive	inactive	Non-toxic	inactive	inactive	inactive	inactive		
